The results in this text go back to BindingDB's records for patent US10913753 (Valo Early Discovery, 2021).

In experiment [1] the target is T1, Ubiquitin carboxyl-terminal hydrolase 25 (Homo sapiens, UniProt Q9UHP3).
T1 sequence (Q9UHP3 whole entry): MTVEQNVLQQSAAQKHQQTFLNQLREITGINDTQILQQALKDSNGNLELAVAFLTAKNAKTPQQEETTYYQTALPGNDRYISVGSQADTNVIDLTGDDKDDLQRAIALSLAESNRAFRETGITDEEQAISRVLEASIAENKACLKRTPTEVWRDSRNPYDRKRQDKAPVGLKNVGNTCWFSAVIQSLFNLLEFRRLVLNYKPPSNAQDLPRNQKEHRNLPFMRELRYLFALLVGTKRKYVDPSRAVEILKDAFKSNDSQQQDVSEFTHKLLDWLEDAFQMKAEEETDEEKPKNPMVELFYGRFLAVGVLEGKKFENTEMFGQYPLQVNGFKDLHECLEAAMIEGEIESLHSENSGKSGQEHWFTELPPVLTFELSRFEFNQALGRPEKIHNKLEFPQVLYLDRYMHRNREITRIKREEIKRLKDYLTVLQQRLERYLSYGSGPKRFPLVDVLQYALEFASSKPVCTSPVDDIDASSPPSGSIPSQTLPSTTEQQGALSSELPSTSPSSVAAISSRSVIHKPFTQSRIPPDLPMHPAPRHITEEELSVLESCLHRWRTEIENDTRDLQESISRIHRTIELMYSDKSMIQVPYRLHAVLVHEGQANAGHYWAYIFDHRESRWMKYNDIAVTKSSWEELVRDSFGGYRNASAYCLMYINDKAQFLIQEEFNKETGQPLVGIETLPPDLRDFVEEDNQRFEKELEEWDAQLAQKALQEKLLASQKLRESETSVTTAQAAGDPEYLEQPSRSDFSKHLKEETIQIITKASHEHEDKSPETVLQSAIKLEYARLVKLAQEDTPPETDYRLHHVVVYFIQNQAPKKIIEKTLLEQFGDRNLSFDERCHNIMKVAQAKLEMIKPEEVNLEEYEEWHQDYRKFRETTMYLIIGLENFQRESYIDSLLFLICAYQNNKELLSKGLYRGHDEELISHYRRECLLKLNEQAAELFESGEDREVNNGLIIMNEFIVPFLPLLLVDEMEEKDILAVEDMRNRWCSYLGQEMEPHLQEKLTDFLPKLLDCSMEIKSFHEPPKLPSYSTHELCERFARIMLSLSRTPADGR
The experiment can be described thus: Biochemical Assay. As for the experimental part: USP25: The assay was performed in a final volume of 9 uL in assay buffer containing 20 mM Tris-HCl (pH 8.0, (1M Tris-HC1, pH 8.0 solution; Corning 46-031-CM)), 3 mM BME (2-Mercaptoethanol; Sigma 63689-25ML-F), 0.03% BGG (0.22 uM filtered, Sigma, G7516-25G), and 0.01% Triton X-100 (Sigma, T9284-10L). Nanoliter quantities of 10-point, 3-fold serial dilution in DMSO was pre-dispensed into 1536 assay plates (Corning, #3724BC) for a final test concentration of 25 uM to 1.3 nM, top to lowest dose, respectively. Enzyme USP25, construct USP25-His6, (Boston Biochem E-546). Concentration and incubation times were optimized for the maximal signal-to-background while maintaining initial velocity conditions at a fixed substrate concentration. The final concentration of the enzyme in the assay was 75 pM. Final substrate (Ub -Rh110; Ubiquitin-Rhodamine 110, R&D Systems #U-555) concentration was 25 nM with [Ub -Rh110] Km. 3 uL of 2x enzyme was added to assay plates (pre-stamped with compound) preincubated with USP25 for 30 minutes and then 3 uL of 2x Ub-Rh110 was added to assay plates. Plates were incubated for 45 minutes at room temperature before addition of 3 uL of stop solution (final concentration of 10 mM citric acid (Sigma, 251275-500G)). Fluorescence was read on the Envision (Excitation at 485 nm and Emission at 535 nm; Perkin Elmer) or on the PheraSTAR (Excitation at 485 nm and Emission at 535 nm; BMG Labtech).

Experiment [2] concerns the target T2, Ubiquitin carboxyl-terminal hydrolase 28 (Homo sapiens, UniProt Q96RU2).
T2 sequence (Q96RU2 whole entry): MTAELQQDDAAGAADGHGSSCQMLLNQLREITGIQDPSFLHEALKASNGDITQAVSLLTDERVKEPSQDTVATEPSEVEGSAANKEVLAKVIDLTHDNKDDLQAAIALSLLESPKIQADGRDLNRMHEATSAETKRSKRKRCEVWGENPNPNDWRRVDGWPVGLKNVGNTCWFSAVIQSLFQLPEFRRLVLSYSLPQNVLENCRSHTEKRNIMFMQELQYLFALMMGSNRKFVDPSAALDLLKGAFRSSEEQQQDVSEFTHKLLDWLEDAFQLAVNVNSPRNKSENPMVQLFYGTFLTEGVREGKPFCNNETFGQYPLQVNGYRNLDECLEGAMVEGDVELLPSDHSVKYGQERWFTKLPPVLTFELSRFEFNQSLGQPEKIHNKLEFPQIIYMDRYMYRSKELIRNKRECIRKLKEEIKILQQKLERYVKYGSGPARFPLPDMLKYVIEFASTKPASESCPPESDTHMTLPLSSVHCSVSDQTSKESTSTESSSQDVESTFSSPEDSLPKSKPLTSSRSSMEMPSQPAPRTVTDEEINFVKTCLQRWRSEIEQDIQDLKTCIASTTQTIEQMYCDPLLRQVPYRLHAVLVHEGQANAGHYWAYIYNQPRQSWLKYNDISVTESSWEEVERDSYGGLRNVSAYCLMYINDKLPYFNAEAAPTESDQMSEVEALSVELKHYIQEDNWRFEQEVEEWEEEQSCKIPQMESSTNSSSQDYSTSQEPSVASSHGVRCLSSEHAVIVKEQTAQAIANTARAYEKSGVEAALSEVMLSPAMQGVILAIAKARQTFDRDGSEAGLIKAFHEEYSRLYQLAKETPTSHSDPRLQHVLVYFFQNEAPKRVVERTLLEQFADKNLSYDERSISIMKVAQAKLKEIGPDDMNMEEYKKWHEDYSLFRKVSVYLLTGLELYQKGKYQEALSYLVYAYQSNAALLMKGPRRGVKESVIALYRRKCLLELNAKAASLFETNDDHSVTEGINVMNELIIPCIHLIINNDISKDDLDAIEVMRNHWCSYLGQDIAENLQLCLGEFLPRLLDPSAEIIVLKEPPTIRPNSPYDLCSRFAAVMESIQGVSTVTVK
The experiment in a line: Biochemical Assay. As for the experimental part:
USP28: The assay was performed in a final volume of 20 uL in assay buffer containing 20 mM Tris-HCl (pH 8.0, (1M Tris-HCl, pH 8.0 solution; Corning 46-031-CM)), 2 mM CaCl2 (1M Calcium Chloride solution; Sigma #21114) 2 mM BME (2-Mercaptoethanol; Sigma 63689-25ML -F), 0.01% Prionex (0.22 uM filtered, Sigma #G-0411), and 0.01% Triton X-100. Stock compound solutions were stored at […] as 10 mM in DMSO. Up to 1 month prior to the assay, 2 mM test compounds were pre-dispensed into assay plates (Black, low volume; Corning #3820) and […] Prestamped assay plates were allowed to come to room temperature on the day of the assay. For the screen, 100 nL of 2 mM was pre-dispensed for a final screening concentration of 10 uM (DMSO(fc)=0.5%). […] Plates were incubated stacked for 90 minutes at room temperature before fluorescence was read on the Envision (Excitation at 485 nm and Emission at 535 nm; Perkin Elmer) or on the PheraSTAR (Excitation at 485 nm and Emission at 535 nm; BMG Labtech).

pIC50: −log10 of the molar value.

In general, IC50 refers to the concentration needed to halve the response being measured. A high value points to weaker potency in that assay. One may read the pIC50 as the negative decadic logarithm of the IC50, by convention in mol/L. For the compound `Nc1c(C(=O)NCCc2ccc([C@H]3CCNC3)cc2)sc2ncccc12` [US10913753, Compound I-180], the half-maximal inhibitory concentration (IC50) entry in experiment [1] is “in the range around 1100 nM”. This compound also showed a pIC50 in experiment [2] above 6.70.
The like results for `Nc1c(C(=O)NCCc2ccc(C3CCNC3)cc2)sc2ncccc12` (stereo unspecified) [US10913753, Compound I-181] were, in that order, “in the range around 1100 nM” and above 6.70.
With `CN[C@H]1CN(c2nc(F)c(CCNC(=O)c3sc4nc(C)ccc4c3N)cc2F)CC1C` (stereo partly specified) [US10913753, Compound I-214], the IC50 result was “in the range around 6000 nM” in experiment [1] and “in the range around 1100 nM” in experiment [2].
